What was measured:
[1] = tested on: Northern house mosquito (female adult); assay: Insecticidal test in acrylic resin cylinder, air blown through impregnated honeycomb carrier (Example 1); format: in vivo; settings: 500 mg preparation; for number of knockdowns: 26 to 30° C.
Source text: Testing apparatus 1 shown in FIG. 1 comprising acrylic resin cylinder 4 was used. Twenty of northern house mosquitos (female adult) were put in the space partitioned with insect nets 2, and blower 3 was set at the bottom of testing apparatus 1. Preparation-retaining material 5 comprising a honeycomb carrier impregnated with a preparation was fitted in at the lower part of cylinder 4 and above blower 3. Air was blown from the bottom of cylinder 4 and passed through the preparation-retaining material 5 to release the pesticidal component from the preparation, and the insecticidal effect was examined using apparatus 1 for insect control of the present invention.
The number of knockdowns of the mosquitos was counted for every 30 seconds during 10 minutes and 30 seconds following the start of the testing. The mosquitos knocked down were transferred to a clean plastic cup (volume: about 500 ml) containing a cotton wad impregnated with a 1% aqueous sugar solution as feed, and the cup was covered and maintained under constant temperature conditions of about 25° C. […]
The preparation-retaining material used herein was prepared as follows. A honeycomb structure (70×70×15 mm) comprising a laminate of corrugated boards (single-sided) made of bleached kraft paper having a basis weight of 80 g/m^2 (height of the corrugation: about 2 mm) was uniformly impregnated with 3 ml of an acetone solution containing about 500 mg of preparation. The impregnated carrier was set in the apparatus after acetone vaporized.

[2] = Vapor pressure at 30° C. on the cox diagram; format: physicochemical
Protocol: Compounds which are hard to vaporize at normal temperature can be used in the present invention as a pesticidal component. Those having a vapor pressure […] than 1×10^−7 mmHg at 30° C. and a boiling point of not lower than 120° C./1 mmHg are preferred. It should be noted that the range of vapor pressure as referred to herein is the range at 30° C. on the vapor pressure vs. temperature plot in the cox diagram hereinafter described.
The results of our study have made it possible to suppose or know the vapor pressure at a target temperature by utilizing the cox diagram only if at least one found value is available. The aforesaid problem can thus be solved.
The cox diagram as used herein is the straight line or a group of the straight lines obtained by plotting log P as ordinate and t/(t+C) as abscissa on a graph.

[3] = Vapor pressure measurement of pyrethroid compounds with the vapor pressure measuring apparatus
[4] = tested on: sensitive smokybrown cockroaches (Periplaneta fuliginosa); assay: Cockroach knockdown and mortality in 24 m^3 test room (Example 3); format: in vivo; settings: 1.0 g pesticidal component
Protocol: (§1) The insect pest control apparatus of the present invention was put at the center of the floor of the room, and two cups each containing 20 cockroaches were placed at each of the two opposite corners of the floor. The pesticidal component shown in Table 5 below was released from the apparatus for consecutive 24 hours. As test insects, sensitive German cockroaches (Blatella germanica) and sensitive smokybrown cockroaches (Periplaneta fuliginosa) were used.
(§2) The preparation-retaining material used was prepared by impregnating a honeycomb carrier (70×70×15 mm; FIG. 3) with 1.0 g of the pesticidal component.

[5] = tested on: sensitive German cockroaches (Blatella germanica); assay: as above; format: in vivo; settings: 1.0 g pesticidal component
Protocol: as §1, §2

C#CCc1ccc(COC(=O)C2C(C=C(C)C)C2(C)C)o1 (mixture of isomers) [furamethrin, 5-propargyl-2-furylmethyl d-cis/trans-chrysanthemate]
number of knockdowns ([1]; 0.5 min): 0
number of knockdowns ([1]; 1.0 min): 0
number of knockdowns ([1]; 1.5 min): 0
number of knockdowns ([1]; 2.0 min): 1
number of knockdowns ([1]; 2.5 min): 3
number of knockdowns ([1]; 3.0 min): 8
number of knockdowns ([1]; 3.5 min): 18
number of knockdowns ([1]; 4.0 min): 19
Mortality (%) ([1]; 24 hrs.): 100%
Mortality (%) ([1]; 48 hrs.): 100%
Vapor Pressure at 30° C. [2]: 4.5 × 10^−4 mmHg
Vapor Pressure ([3]; 20° C.): 1.3 × 10^−4 mmHg
Vapor Pressure ([3]; 25° C.): 2.2 × 10^−4 mmHg
Vapor Pressure ([3]; 30° C.): 4.5 × 10^−4 mmHg
Vapor Pressure ([3]; 35° C.): 7.1 × 10^−4 mmHg
Vapor Pressure ([3]; 40° C.): 1.4 × 10^−3 mmHg

CC1(C)C(C=C(Cl)Cl)C1C(=O)OCc1cccc(Oc2ccccc2)c1 (mixture of isomers) [permethrin, 3-phenoxybenzyl-dl-cis/trans-3-(2,2-dichlorovinyl)-2,2-dimethyl-1-cyclopropanecarboxylate]
Vapor Pressure ([3]; 20° C.): 5.5 × 10^−7 mmHg
Vapor Pressure ([3]; 25° C.): 1.1 × 10^−6 mmHg
Vapor Pressure ([3]; 30° C.): 1.9 × 10^−6 mmHg
Vapor Pressure ([3]; 35° C.): 3.6 × 10^−6 mmHg
Vapor Pressure ([3]; 40° C.): 6.3 × 10^−6 mmHg

CC(C)=CC1C(C(=O)OCc2cccc(Oc3ccccc3)c2)C1(C)C (mixture of isomers) [phenothrin, 3-phenoxybenzyl-d-cis/trans-chrysanthemate]
Vapor Pressure ([3]; 20° C.): 1.2 × 10^−6 mmHg
Vapor Pressure ([3]; 25° C.): 2.2 × 10^−6 mmHg
Vapor Pressure ([3]; 30° C.): 4.3 × 10^−6 mmHg
Vapor Pressure ([3]; 35° C.): 7.7 × 10^−6 mmHg
Vapor Pressure ([3]; 40° C.): 1.4 × 10^−5 mmHg

CC(C)=CC1C(C(=O)OCN2C(=O)C3=C(CCCC3)C2=O)C1(C)C (mixture of isomers) [phthalthrin, (1,3,4,5,6,7-hexahydro-1,3-dioxo-2-isoindolyl)methyl dl-cis/trans-chrysanthemate]
Vapor Pressure ([3]; 20° C.): 3.5 × 10^−8 mmHg
Vapor Pressure ([3]; 25° C.): 6.6 × 10^−8 mmHg
Vapor Pressure ([3]; 30° C.): 1.2 × 10^−7 mmHg
Vapor Pressure ([3]; 35° C.): 2.2 × 10^−7 mmHg
Vapor Pressure ([3]; 40° C.): 3.8 × 10^−7 mmHg

C#CCC1=C(C)C(OC(=O)C2C(C=C(C)C)C2(C)C)CC1=O (mixture of isomers) [prallethrin, (+)-2-methyl-4-oxo-3-(2-propynyl)-2-cyclopentenyl (+)-cis/trans-chrysanthemate]
number of knockdowns ([1]; 0.5 min): 0
number of knockdowns ([1]; 1.0 min): 0
number of knockdowns ([1]; 1.5 min): 1
number of knockdowns ([1]; 2.0 min): 10
number of knockdowns ([1]; 2.5 min): 15
number of knockdowns ([1]; 3.0 min): 21
number of knockdowns ([1]; 3.5 min): 22
Mortality (%) ([1]; 24 hrs.): 86%
Mortality (%) ([1]; 48 hrs.): 100%
Vapor Pressure at 30° C. [2]: 1.3 × 10^−4 mmHg
Vapor Pressure ([3]; 20° C.): 3.5 × 10^−5 mmHg
Vapor Pressure ([3]; 25° C.): 6.9 × 10^−5 mmHg
Vapor Pressure ([3]; 30° C.): 1.3 × 10^−4 mmHg
Vapor Pressure ([3]; 35° C.): 2.4 × 10^−4 mmHg
Vapor Pressure ([3]; 40° C.): 4.4 × 10^−4 mmHg

CC(C)=CC1C(C(=O)OCc2coc(Cc3ccccc3)c2)C1(C)C (mixture of isomers) [resmethrin, (5-benzyl-3-furyl)methyl d-cis/trans-chrysanthemate]
number of knockdowns ([1]; 0.5 min): 0
number of knockdowns ([1]; 1.0 min): 0
number of knockdowns ([1]; 1.5 min): 0
number of knockdowns ([1]; 2.0 min): 0
number of knockdowns ([1]; 2.5 min): 2
number of knockdowns ([1]; 3.0 min): 2
number of knockdowns ([1]; 3.5 min): 4
number of knockdowns ([1]; 4.0 min): 5
number of knockdowns ([1]; 4.5 min): 5
number of knockdowns ([1]; 5.0 min): 7
number of knockdowns ([1]; 5.5 min): 7
number of knockdowns ([1]; 6.0 min): 8
number of knockdowns ([1]; 6.5 min): 10
number of knockdowns ([1]; 7.0 min): 12
number of knockdowns ([1]; 7.5 min): 13
number of knockdowns ([1]; 8.0 min): 16
number of knockdowns ([1]; 8.5 min): 17
number of knockdowns ([1]; 9.0 min): 19
Mortality (%) ([1]; 24 hrs.): 58%
Mortality (%) ([1]; 48 hrs.): 79%
Vapor Pressure at 30° C. [2]: 1.7 × 10^−5 mmHg
Vapor Pressure ([3]; 20° C.): 3.5 × 10^−6 mmHg
Vapor Pressure ([3]; 25° C.): 7.1 × 10^−6 mmHg
Vapor Pressure ([3]; 30° C.): 1.7 × 10^−5 mmHg
Vapor Pressure ([3]; 35° C.): 2.8 × 10^−5 mmHg
Vapor Pressure ([3]; 40° C.): 5.6 × 10^−5 mmHg

CC(C)=CC1C(C(=O)OC(C#N)c2cccc(Oc3ccccc3)c2)C1(C)C (racemic) [cyphenothrin, (±) αa-cyano-3-phenoxybenzyl(+)-cis/trans-chrysanthemate]
Vapor Pressure ([3]; 20° C.): 9.2 × 10^−7 mmHg
Vapor Pressure ([3]; 25° C.): 1.9 × 10^−6 mmHg
Vapor Pressure ([3]; 30° C.): 3.6 × 10^−6 mmHg
Vapor Pressure ([3]; 35° C.): 6.6 × 10^−6 mmHg
Vapor Pressure ([3]; 40° C.): 1.3 × 10^−5 mmHg

C=CCC1=C(C)C(OC(=O)C2C(C)(C)C2(C)C)CC1=O (racemic) [terallethrin, dl-3-allyl-2-methyl-4-oxo-2-cyclopentenyl dl-cis/trans-2,2,3,3-tetramethylcyclopropanecarboxylate]
number of knockdowns ([1]; 0.5 min): 0
number of knockdowns ([1]; 1.0 min): 0
number of knockdowns ([1]; 1.5 min): 4
number of knockdowns ([1]; 2.0 min): 15
number of knockdowns ([1]; 2.5 min): 17
Mortality (%) ([1]; 24 hrs.): 88%
Mortality (%) ([1]; 48 hrs.): 100%
Vapor Pressure at 30° C. [2]: 6.6 × 10^−4 mmHg
Vapor Pressure ([3]; 20° C.): 2.2 × 10^−4 mmHg
Vapor Pressure ([3]; 25° C.): 4.2 × 10^−4 mmHg
Vapor Pressure ([3]; 30° C.): 6.6 × 10^−4 mmHg
Vapor Pressure ([3]; 35° C.): 1.2 × 10^−3 mmHg
Vapor Pressure ([3]; 40° C.): 4.8 × 10^−3 mmHg

CC1(C)C(C=C(Cl)Cl)C1C(=O)OCc1c(F)c(F)cc(F)c1F (stereo not drawn) [benfluthrin, d-trans-2,3,5,6-tetrafluorobenzyl-3-(2,2-dichlorovinyl)-2,2-dimethyl-1-cyclopropanecarboxylate]
Knockdown Ratio (%) ([4]; 1 hr): 0%
Knockdown Ratio (%) ([4]; 2 hrs): 0%
Knockdown Ratio (%) ([4]; 4 hrs): 5.0%
Knockdown Ratio (%) ([4]; 24 hrs): 6.3%
Mortality at 48 hrs (%) ([4]; 48 hrs): 7.5%
Knockdown Ratio (%) ([5]; 1 hr): 0%
Knockdown Ratio (%) ([5]; 2 hrs): 0%
Knockdown Ratio (%) ([5]; 4 hrs): 0%
Knockdown Ratio (%) ([5]; 24 hrs): 87.5%
Mortality at 48 hrs (%) ([5]; 48 hrs): 97.5%
Vapor Pressure ([3]; 20° C.): 8.3 × 10^−5 mmHg
Vapor Pressure ([3]; 25° C.): 1.5 × 10^−4 mmHg
Vapor Pressure ([3]; 30° C.): 2.7 × 10^−4 mmHg
Vapor Pressure ([3]; 35° C.): 4.0 × 10^−4 mmHg
Vapor Pressure ([3]; 40° C.): 8.5 × 10^−4 mmHg

C=CCC1=C(C)C(OC(=O)C2C(C=C(C)C)C2(C)C)CC1=O (stereo not drawn) [esbiol, d-3-allyl-2-methyl-4-oxo-2-cyclopentenyl d-trans-chrysanthemate]
number of knockdowns ([1]; 0.5 min): 0
number of knockdowns ([1]; 1.0 min): 0
number of knockdowns ([1]; 1.5 min): 1
number of knockdowns ([1]; 2.0 min): 3
number of knockdowns ([1]; 2.5 min): 10
number of knockdowns ([1]; 3.0 min): 17
number of knockdowns ([1]; 3.5 min): 19
number of knockdowns ([1]; 4.0 min): 22
Mortality (%) ([1]; 24 hrs.): 70%
Mortality (%) ([1]; 48 hrs.): 78%
Vapor Pressure at 30° C. [2]: 1.2 × 10^−4 mmHg

CC(C)=CC1C(C(=O)OCN2C(=O)C3=C(CCCC3)C2=O)C1(C)C (stereo not shown) [tetramethrin]
Vapor Pressure ([3]; 20° C.): 2.4 × 10^−6 mmHg
Vapor Pressure ([3]; 25° C.): 4.4 × 10^−6 mmHg
Vapor Pressure ([3]; 30° C.): 8.5 × 10^−6 mmHg
Vapor Pressure ([3]; 35° C.): 1.7 × 10^−5 mmHg
Vapor Pressure ([3]; 40° C.): 3.2 × 10^−5 mmHg

Source: US6391329B1, “Insect pest control method” (Earth Chemical Co., Ltd., priority 1994, dated 2002)
